The record followed here is patent US20080103185A1, “Process for Producing Thiazolidinedione Compound and Production Intermediate Thereof” (DAIICHI SANKYO COMPANY, LIMITED, priority 2005, published 2008).

This data set in a line: Test for quality and stability over time of compound (III^1) crystals, HPLC peak area content. Format: physicochemical. Particulars: HPLC area %. On the procedure: Test for quality and stability over time of tert-butyl N-{2-{4-[(2,4-dioxothiazolidin-5-yl)methyl]phenoxyacetylamino}-5-methoxyphenyl}-N-methylcarbamate (compound (III^1))
Quality of four samples (the crystals obtained in Example 3, the crystals obtained in Example 3 and stored at 40° C. for 40 days, the purified crystals obtained in Example 4 and the purified crystals obtained in Example 4 and stored at 40° C. for 42 days) was analyzed. Quality was analyzed by the following method.
A solution of about 10 mg/L of the compound (III^1) in acetonitrile-water (4:1) was prepared.
About 20 μL of the sample solution was analyzed by high-performance liquid chromatography under the following conditions.
Column: L-column ODS 4.6×250 mm (Chemicals-Evaluation and Research Institute, Japan)
Mobile phase: 0.02 M ammonium acetate solution/acetonitrile mixture (55:45)
Detection wavelength: 220 nm
Measurement temperature: 40° C.
Peak areas were determined from chromatograms, respectively, to provide a content of each component (%) 100× (peak area of each component)/(total peak area of all components).

Regarding `COc1ccc(NC(=O)COc2ccc(CC3SC(=O)NC3=O)cc2)c(N(C)C(=O)OC(C)(C)C)c1` (centres unmarked) [Crystals of Example 3, tert-Butyl N-{2-{4-[(2,4-dioxothiazolidin-5-yl)methyl]phenoxyacetylamino}-5-methoxyphenyl}-N-methylcarbamate], the “content of component at relative retention time 3.01” value (crystals stored at 40° C. for 40 days, immediately after drying 0.05) was found to be 0.05%. Besides, the “content of component at relative retention time 0.46” value (crystals stored at 40° C. for 40 days, immediately after drying 0.16) came out at 0.48%. In addition, under “crystals stored at 40° C. for 40 days, immediately after drying 0.39”, the “content of component at relative retention time 0.43” value was 0.32%. Besides, the “Total of other components” value (crystals stored at 40° C. for 40 days, immediately after drying 0.54) was found to be 0.56%. Also, where the note is “crystals stored at 40° C. for 40 days, immediately after drying 0.60”, the “content of component at relative retention time 0.21” value stood at 0.63%. This compound also gave a Total of impurities (crystals stored at 40° C. for 40 days, immediately after drying 1.74) of 2.04%. The “content of test substance (relative retention time 1.00)” value (crystals stored at 40° C. for 40 days, immediately after drying 98.26) is listed as 97.96%.
Turning to `COc1ccc(NC(=O)COc2ccc(CC3SC(=O)NC3=O)cc2)c(N(C)C(=O)OC(C)(C)C)c1` (centres unmarked) [Purified crystals of Example 4, tert-Butyl N-{2-{4-[(2,4-dioxothiazolidin-5-yl)methyl]phenoxyacetylamino}-5-methoxyphenyl}-N-methylcarbamate], for the setting “purified crystals stored at 40° C. for 42 days, immediately after drying 0.04”, the “content of component at relative retention time 3.01” value was 0.03%. The “content of component at relative retention time 0.43” value (purified crystals stored at 40° C. for 42 days, immediately after drying 0.07) was found to be 0.07%. For the setting “purified crystals stored at 40° C. for 42 days, immediately after drying 0.08”, the “content of component at relative retention time 0.46” value worked out at 0.09%. Also, the “content of component at relative retention time 0.21” value (purified crystals stored at 40° C. for 42 days, immediately after drying 0.19) was 0.26%. Moreover, the “Total of other components” value (purified crystals stored at 40° C. for 42 days, immediately after drying 0.25) is on record as 0.20%. For the same compound, the Total of impurities (purified crystals stored at 40° C. for 42 days, immediately after drying 0.63) was determined as 0.65%. Besides, the “content of test substance (relative retention time 1.00)” value (purified crystals stored at 40° C. for 42 days, immediately after drying 99.37) came to 99.35%.
